US20090269351A1, “METHOD OF DIAGNOSING AND TREATING GLIOMA” (Genentech, Inc., priority 2006, published 2009)

Legend:
GBM-derived neurospheres = experiment: Neurosphere growth with growth factors; format: cell-based, human; details: for neurosphere growth: maximal concentration of 20 ng/ml
Source text: Previously described GBM cell lines were used for the instant in vitro studies (Hartman et al., Internat. J. One. 15: 975-982 (1999)). To create neurosphere cultures, two cell lines (G63 and G69) were sorted using a CD133 cell isolation kit (Miltenyi Biotech) according to manufacturer's instructions, and maintained in culture as described for primary GBM specimens (Singh et al., Nature 432: 396-401 (2004)). All neurosphere cultures were maintained in Neurobasal medium (Invitrogen) with N2 supplement (Invitrogen) and NSF1 (Cambrex). For growth studies, both EGF and IGF2 were added at a concentration of 20 ng/ml. Neurospheres of primary GBM were obtained as unsorted dissociate of primary tumor (from Drs. M. Westphal and K. Lamszuz, Univ. Hamburg), expanded and maintained under the same conditions described for cel line-derived neurospheres. Neurosphere assays were performed in triplicate.
When IGF2-dependent neurospheres were disassociated and subjected to a proliferation assay using increasing concentrations of EGF or IGF2, both growth factors induced rapid growth. The growth rate based on growth factor dosage produced an identical growth curve for each growth factor (FIG. 3B).

tumor = details: nude mouse model, Teicher et al. 2002; cited from earlier work

## EGF: growth factor added to neurosphere cultures (NSDSECPLSHDGYCLHDGVCMYIEALDKYACNCVVGYIGERCQYRDLKWWELR; Epidermal growth factor; UniProt P01133 971-1023, looked up)
GBM-derived neurospheres
  neurosphere growth: proliferated rapidly

## Cl.Cn1cc(C2=C(c3cn(C4CCN(Cc5ccccn5)CC4)c4ccccc34)C(=O)NC2=O)c2ccccc21 [317615-HCL]
tumor
  anti-tumor effect: anti-tumor effect

## IGF2: Recombinant IGF2 (R&D Systems, 292-G2), growth factor
GBM-derived neurospheres
  neurosphere growth: proliferated rapidly
GBM-derived neurospheres; neurosphere system
  proliferative response of neurospheres compared with EGF: indistinguishable from the response to EGF
